Laboratory results reported in publication PMC5963591, “Bitopic Binding Mode of an M1 Muscarinic Acetylcholine Receptor Agonist Associated with Adverse Clinical Trial Outcomes” (Molecular Pharmacology, 2018).

What was measured:
[1] = system: wild-type M1 mAChR; assay: Agonist bias analysis, IP1 versus ERK1/2 phosphorylation (operational model); assay type: cell-based, human; details: reference ligand ACh
Description: (§1) For the analysis, all families of agonist curves at each pathway were globally fitted to the model with the parameters, basal, Em, and n shared between all agonists. For full agonists, the LogKA was constrained to a value of zero, whereas for partial agonists this was directly estimated by the curve fitting procedure; the Log(τ/KA) parameter was estimated as a unique measure of activity for each agonist.

[2] = system: patients with AD; set-up: method as in Bodick et al., 1997; details: ref Bodick et al., 1997; cited from earlier work
[3] = Mouse pharmacokinetics, unbound plasma and brain concentrations; assay type: in vivo; details: mice, 30 minutes after i.p. administration
Method: Pharmacokinetic analyses were conducted as previously described ([Witkin et al., 2017]). Compounds were administered via intraperitoneal injection (in 5% glucose) 30 minutes prior to blood collection. Mice were anesthetized with 3% isoflurane (2 l/min), and blood was collected by cardiac puncture of the left ventricle. Blood was immediately transferred to EDTA tubes and centrifuged at 1000g for 10 minutes at 4°C; the supernatant was collected and frozen. Brains from each mouse were also dissected and snap-frozen on dry ice.
Brain samples were homogenized in three volumes of methanol/water [1:4 (v/v)] by weight. A 25-μl aliquot of each study sample, calibration standard, and control sample was added to a 96-well plate and mixed with 180 μl acetonitrile/methanol [1:1 (v/v)] containing internal standard. The samples were subsequently centrifuged, and the resulting supernatants were diluted 12.5-fold with methanol/water [1:1 (v/v)] prior to analyzing 10-μl aliquots by liquid chromatography–tandem mass spectrometry as previously described ([Bradley et al., 2017]).

[4] = system: C57Bl/6J mice; assay: Contextual fear conditioning, scopolamine-induced deficit; assay type: in vivo, mouse; details: for shape of the dose response on learning and memory: escalating i.p. doses with scopolamine […]
Method: C57Bl/6J male mice (aged 8–12 weeks) were acclimatized to the behavioral testing suite at least 2 hours prior to the test. […] Mice were placed in the conditioning chamber (ANY-maze Fear Conditioning System; Stoelting, Dublin, Ireland); after a 2-minute adaptation period, they received three tone/foot shock pairings where the foot shock (unconditioned stimulus; 2 seconds; 0.4 mA) always co-terminated with a tone (conditioned stimulus; 2.8 kH; 85 dB; 30 seconds). The conditioned stimulus–unconditioned stimulus pairings were separated by 1-minute intervals. After the mice completed training, they remained in the conditioning chamber for 1 minute and were then returned to their home cages. The next day, the mice were placed back in the conditioning chamber, and time spent immobile was recorded for 3 minutes to assess context-dependent learning. Data were analyzed using ANY-maze software (Stoelting).

[5] = system: murine prion disease; details: doses that rescued learning and memory, ref Bradley et al., 2017; cited from earlier work
[6] = molecular target: T1, human M1 mAChR (Homo sapiens, UniProt P11229); assay: Kinetic [3H]-NMS binding (dissociation) in membranes; set-up: expressed in transfected cells; host or cells: CHO Flp-In; details: compound 10 μM plus atropine 10 μM
T1 sequence (P11229 1-460): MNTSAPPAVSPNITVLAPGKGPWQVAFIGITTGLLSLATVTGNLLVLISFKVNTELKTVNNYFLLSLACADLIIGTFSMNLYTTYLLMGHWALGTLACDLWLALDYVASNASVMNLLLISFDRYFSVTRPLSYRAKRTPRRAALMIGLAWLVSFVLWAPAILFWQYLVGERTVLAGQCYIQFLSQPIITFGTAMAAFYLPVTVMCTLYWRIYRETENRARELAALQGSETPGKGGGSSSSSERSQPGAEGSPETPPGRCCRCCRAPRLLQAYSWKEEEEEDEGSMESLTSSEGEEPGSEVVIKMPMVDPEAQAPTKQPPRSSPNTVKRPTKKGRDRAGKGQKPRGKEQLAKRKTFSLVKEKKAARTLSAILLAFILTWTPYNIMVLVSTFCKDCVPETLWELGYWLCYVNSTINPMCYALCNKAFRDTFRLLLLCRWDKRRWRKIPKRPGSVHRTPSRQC
Method: Reactions were terminated by rapid filtration onto GF/B filter paper (Whatman, Maidstone, UK) and three washes with 3 ml ice-cold 0.9% NaCl using a Brandel harvester (M-24TI; Brandel, Fort Lauderdale, FL). Membrane bound radioactivity was determined by liquid scintillation (Ultima Gold; PerkinElmer) counting.

[7] = molecular target: T2, human M1 receptor (Homo sapiens, UniProt P11229); assay: ERK1/2 phosphorylation, CHO Flp-In human M1 cells; assay type: cell-based
T2 construct: expressed in transfected cells; host or cells: CHO Flp-In
T2 sequence (P11229 1-460): T1 sequence (P11229 1-460)
Method: CHO Flp-In cells stably expressing the human M1 receptor were seeded onto transparent 96-well plates at 20,000 cells/well and grown to confluence. Cells were serum starved overnight prior to the experiment. Prior to the stimulations, cells were washed with 100 μl phosphate-buffered saline and then incubated in serum free F12 medium at 37°C. Cells were stimulated with ligands for 5 minutes at 37°C in a final volume of 200 μl. The stimulations were terminated by rapid aspiration and addition of 50 μl lysis buffer supplemented with blocking reagent per the manufacturer’s instructions, followed by gentle agitation at room temperature for 30 minutes. Subsequently, 16 μl of this lysate was transferred to a 384-well white ProxiPlate (PerkinElmer) and incubated with 4 μl premixed antibody solution for 2 hours at room temperature.
as §1

[8] = molecular target: T1, human M1 mAChR; assay: IP-One (IP1) accumulation assay, CHO Flp-In human M1 cells; assay type: cell-based; set-up: expressed in transfected cells; host or cells: CHO Flp-In
Method: Stimulation of IP accumulation was determined using the Cisbio IP-One Gq assay kit per the manufacturer’s instructions. […] CHO Flp-In cells stably expressing the human M1 mAChR were grown to confluence in T75 cell culture flasks at 37°C. Cells were washed with warm phosphate-buffered saline and detached using phosphate-buffered saline with 0.1 M EDTA. Detached cells were centrifuged at 1000g and the cells were resuspended in stimulation buffer.
All IP-One stimulations were terminated by the addition of 3 μl/well IP1-d2 solution, followed by 3 μl/well anti–IP1-cryptate solution and incubation for 1 hour at room temperature with shaking.
Functional concentration-response curves were fitted according to a four-parameter logistic equation (to determine minimum and maximum asymptotes, LogEC50, and slope; GraphPad Prism 6). […] In the absence of antagonist ([B] = 0), this equation becomes the standard four-parameter logistic equation for fitting agonist concentration-response data.

[9] = molecular target: T1, human M1 mAChR; details: 20 nM [^3H]-GSK1034702
[10] = molecular target: T1, human M1 mAChR; assay: IP1 accumulation after receptor alkylation with phenoxybenzamine (functional interaction with ACh); details: phenoxybenzamine 3 μM for 30 minutes, CHO Flp-In cells
[11] = normalized to reference ligand ACh
[12] = transduction coefficient, wild-type M1 mAChR

CC(=O)OCC[N+](C)(C)C [ACh, acetylcholine]
Log Bias Factor IP1 – ERK1/2 ΔΔLog10(τ/KA) [1]: 0.0 ± 0.1

CCCCCCOc1nsnc1C1=CCCN(C)C1 [Xanomeline, xanomeline]
effect on cognitive function [2]: significantly improved cognitive function
Log Bias Factor IP1 – ERK1/2 ΔΔLog10(τ/KA) [1]: 1.1 ± 0.1
free brain concentration versus dose [3]: increase linearly with escalating doses
shape of the dose response on learning and memory [4]: bell shaped
adverse responses [5]: gave adverse responses consistent with the activation of other muscarinic receptor subtypes

Cc1ccccc1CN1CCC(N2CCC(n3c(=O)[nH]c4ccccc43)CC2)CC1 [TBPB, 1-[1′-(2-methylbenzyl)-1,4′-bipiperidin-4-yl]-1,3-dihydro-2H-benzimidazol-2-one, reference compound]
effect on the [^3H]-NMS dissociation rate [6]: no effect
Log Bias Factor IP1 – ERK1/2 ΔΔLog10(τ/KA) [1]: 1.4 ± 0.2
free brain concentration versus dose [3]: could not be increased beyond that observed at 10 mg/kg
ERK1/2 Phosphorylation ΔLog10(τ/KA) [7, 11]: −0.3 ± 0.4
ERK1/2 Phosphorylation Log10(τ/KA) [7, 12]: 6.9 ± 0.4
shape of the dose response on learning and memory [4]: no evidence of a bell-shaped dose response
IP1 Emax ([8]; CHO Flp-In human M1 cells): 55.2 ± 3.1
IP1 Accumulation ΔLog10(τ/KA) [8, 11]: 1.1 ± 0.2
IP1 Accumulation Log10(τ/KA) [8, 12]: 8.2 ± 0.2
displacement of specific [^3H]-GSK1034702 binding [9]: fully displaced

CN1[C@@H]2C[C@@H](OC(=O)[C@H](CO)c3ccccc3)C[C@H]1[C@@H]1O[C@@H]12 [scopolamine]
effect on contextual fear conditioning learning and memory ([4]; doses above 1 mg/kg, 30 minutes prior to training): significant reduction in contextual fear conditioning learning and memory

CC(COc1ccccc1)N(CCCl)Cc1ccccc1 (stereo not drawn) [Phenoxybenzamine, phenoxybenzamine, reference compound]
reduction of the functional human M1 mAChR population [10]: approximately 80%
